The supplement of paper PMC10307832

Key:
Assay in all cases: relative viability (nuclei count vs DMSO), 5 days (fraction); higher = more cells survive
[1] = compound: C1CSC2=C(C(=O)N1)SC3=C2C=C(C=C3)O [kb NB 142-70] + CS(=O)(=O)N1CCN(Cc2cc3nc(-c4cccc5[nH]ncc45)nc(N4CCOCC4)c3s2)CC1 [Pictilisib] (partner 1 µM)
Procedure, shortened: (§1)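 For relative viability, nuclei counts in treated wells were divided by those in vehicle wells. Lung cancer cell lines had been pin-tool dosed in 1536-well plates the day after seeding and cultured for 5 days, then fixed and stained in one step (final 0.05% Triton X-100, 1% formaldehyde, 1 ug/ml Hoechst) and imaged at 4×. Doses were one drug alone or a fixed anchor-drug dose plus five library-drug doses (not always all listed) in √10 steps, and values are duplicate-plate medians.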

kb NB 142-70 + OSI-027 = compound: C1CSC2=C(C(=O)N1)SC3=C2C=C(C=C3)O [kb NB 142-70] + COc1cccc2cc(-c3nc([C@H]4CC[C@H](C(=O)O)CC4)n4ncnc(N)c34)[nH]c12 [OSI-027] (partner 0.5 µM)
Procedure, shortened: as §1

[2] = compound: C1CSC2=C(C(=O)N1)SC3=C2C=C(C=C3)O [kb NB 142-70] + C[C@]1(O)C[C@@H](c2nc(-c3ccc4ccc(-c5ccccc5)nc4c3)c3c(N)nccn32)C1 [Linsitinib] (partner 1 µM)
Procedure, shortened: as §1

[3] = compound: NCC(=O)Nc1ccc(-n2nc(C(F)(F)F)cc2-c2ccc3c(ccc4ccccc43)c2)cc1 + CC1(C)CCC(c2ccc(Cl)cc2)=C(CN2CCN(c3ccc(C(=O)NS(=O)(=O)c4ccc(N[C@H](CCN5CCOCC5)CSc5ccccc5)c(S(=O)(=O)C(F)(F)F)c4)cc3)CC2)C1 [Navitoclax] (partner 0.5 µM)
Procedure, shortened: as §1

[4] = compound: C1CSC2=C(C(=O)N1)SC3=C2C=C(C=C3)O [kb NB 142-70] + C[C@@H](Oc1cc(-c2cnn(C3CCNCC3)c2)cnc1N)c1c(Cl)ccc(F)c1Cl [Crizotinib] (partner 1 µM)
Procedure, shortened: as §1

[5] = compound: C1CSC2=C(C(=O)N1)SC3=C2C=C(C=C3)O [kb NB 142-70] + Cc1cc(Nc2cc(N3CCN(C)CC3)nc(Sc3ccc(NC(=O)C4CC4)cc3)n2)n[nH]1 [Tozasertib] (partner 0.1 µM)
Procedure, shortened: as §1

Cell Line | relative viability ([1]; first compound 0.1 µM) | relative viability ([1]; first compound 1 µM) | relative viability ([1]; first compound 3.162 µM) | relative viability (kb NB 142-70 + OSI-027; first compound 0.1 µM) | relative viability (kb NB 142-70 + OSI-027; first compound 1 µM) | relative viability (kb NB 142-70 + OSI-027; first compound 3.162 µM) | relative viability ([2]; first compound 0.1 µM) | relative viability ([2]; first compound 1 µM) | relative viability ([2]; first compound 3.162 µM) | relative viability ([3]; first compound 0.02 µM) | relative viability ([3]; first compound 0.06325 µM) | relative viability ([3]; first compound 0.2 µM) | relative viability ([3]; first compound 0.6325 µM) | relative viability ([3]; first compound 2 µM) | relative viability ([4]; first compound 0.1 µM) | relative viability ([4]; first compound 1 µM) | relative viability ([4]; first compound 3.162 µM) | relative viability ([5]; first compound 0.1 µM) | relative viability ([5]; first compound 1 µM) | relative viability ([5]; first compound 3.162 µM)
HCC-15 | 0.746 | 0.79 | 0.56 | 0.698 | 0.703 | 0.516 | 0.86 | 0.89 | 0.697 | 0.746 | 0.731 | 0.716 | 0.716 | 0.693 | 0.773 | 0.85 | 0.813 | 0.427 | 0.471 | 0.227
HCC-44 | 0.566 | 0.622 | 0.646 | 0.701 | 0.439 | 0.685 | 0.689 | 0.716 | 0.658 | 0.866 | 0.942 | 1.02 | 0.958 | 0.944 | 0.777 | 0.883 | 0.907 | 0.728 | 0.901 | 0.722
HCC-78 | 0.213 | 0.216 | 0.181 | 0.379 | 0.375 | 0.34 | 0.491 | 0.569 | 0.467 | 0.854 | 0.868 | 0.729 | 0.715 | 0.908 | 0.305 | 0.372 | 0.353 | 0.389 | 0.468 | 0.411
IA-LM | 0.412 | 0.529 | 0.51 |  |  |  | 0.621 | 0.771 | 0.87 | 0.814 | 0.808 | 0.898 | 0.86 | 0.827 | 0.856 | 1.25 | 0.894 |  |  | 
LCLC-103H | 0.631 | 0.652 | 0.638 | 0.493 | 0.452 | 0.454 | 0.989 | 1.2 | 1.15 |  |  |  |  |  | 0.997 | 1.12 | 1.03 | 0.472 | 0.524 | 0.417
NCI-H358 | 0.35 | 0.3 | 0.189 | 0.669 | 0.464 | 0.105 | 0.654 | 0.522 | 0.146 |  |  |  |  |  | 0.481 | 0.493 | 0.136 | 0.109 | 0.0809 | 0.077
NCI-H522 |  |  |  | 0.737 | 0.658 | 0.608 |  |  |  |  |  |  |  |  |  |  |  | 0.521 | 0.565 | 0.61
NCI-H650 | 1.05 | 0.94 | 0.756 | 0.535 | 0.519 | 0.52 | 0.908 | 0.878 | 0.755 |  |  |  |  |  | 0.715 | 0.683 | 0.449 | 0.747 | 0.668 | 0.435
NCI-H661 | 0.496 | 0.343 | 0.351 | 0.723 | 0.717 | 0.61 | 0.561 | 0.607 | 0.602 |  |  |  |  |  | 1.05 | 0.969 | 1.22 | 0.337 | 0.356 | 0.353
NCI-H1299 | 0.802 | 0.889 | 0.32 |  |  |  | 1.07 | 1.07 | 1.14 | 1.02 | 1.06 | 1.09 | 1.04 | 1.07 | 0.928 | 0.969 | 0.893 |  |  | 
NCI-H1395 | 0.901 | 0.687 | 0.6 | 0.674 | 0.757 | 0.638 | 1.15 | 1.26 | 0.765 | 1.12 | 1.16 | 1.16 | 1.11 | 1.22 |  |  |  | 0.724 | 0.784 | 0.729
NCI-H1563 | 0.654 | 0.674 | 0.634 | 0.773 | 0.739 | 0.752 | 1.19 | 1.19 | 1.28 |  |  |  |  |  | 0.864 | 0.853 | 0.839 |  |  | 
NCI-H1623 |  |  |  | 0.399 | 0.375 | 0.404 |  |  |  |  |  |  |  |  |  |  |  | 0.441 | 0.433 | 0.379
NCI-H1648 |  |  |  | 0.253 | 0.217 | 0.237 |  |  |  |  |  |  |  |  |  |  |  | 0.396 | 0.524 | 0.398
NCI-H1650 | 0.577 | 0.539 | 0.613 | 0.612 | 0.755 | 0.483 |  |  |  | 1.25 | 1.5 | 1.32 | 1.1 | 1.31 | 0.833 | 1.01 | 1.08 | 0.47 | 0.334 | 0.339
NCI-H1703 | 0.249 | 0.286 | 0.255 |  |  |  | 0.975 | 0.625 | 0.823 | 1.07 | 1.06 | 1.35 | 1 | 1.51 | 0.681 | 0.866 | 0.489 |  |  | 
NCI-H1792 | 0.323 | 0.269 | 0.396 | 0.705 | 0.684 | 0.912 | 0.598 | 0.616 | 0.688 | 0.694 | 0.722 | 0.617 | 0.693 | 0.617 | 0.995 | 1.01 | 0.914 |  |  | 
NCI-H1793 | 0.313 | 0.379 | 0.386 | 0.34 | 0.311 | 0.294 | 0.832 | 1.08 | 0.905 | 0.529 | 0.446 | 0.395 | 0.411 | 0.416 |  |  |  | 0.377 | 0.346 | 0.197
NCI-H2170 | 0.299 | 0.275 | 0.227 | 0.699 | 0.694 | 0.588 |  |  |  | 0.56 | 0.598 | 0.578 | 0.561 | 0.6 | 1.21 | 1.22 | 1.04 | 0.688 | 0.735 | 0.481
NCI-H2342 |  |  |  | 0.649 | 0.612 | 0.638 |  |  |  |  |  |  |  |  |  |  |  | 0.447 | 0.614 | 0.544
SW 900 |  |  |  | 0.552 | 0.478 | 0.295 |  |  |  |  |  |  |  |  |  |  |  | 0.608 | 0.472 | 0.407
